Laboratory results from US10285382B2 (priority 2017, dated 2019).
“And” between values parts separate entries of the source, which are not always exact repeats. Identical values can stand only once. Like-named read-outs stand apart in the source and are kept apart here.

Tested on: eggs
[1] = 4 day delta: Day 4 DHP+ versus Day 4 DHP−
[2] = 5 day delta: Day 5 DHP+ versus Day 5 DHP−
[3] = 6 day delta: Day 6 DHP+ versus Day 6 DHP−
[4] = Day 4 DHP+, summary over replicates stored 4 days
[5] = Day 5 DHP+, summary over replicates stored 5 days
[6] = Day 6 DHP+, summary over replicates stored 6 days
[7] = Day 7 DHP+, summary over replicates stored 7 days
[8] = Day 7 Delta: Day 7 DHP+ versus Day 7 DHP−
[9] = Delta: Avg. Trtd versus Avg. Untrd, all storage times
[10] = an additional day (five days) of DHP gas treatment, vs untreated
[11] = eggs treated four days, vs untreated
[12] = seven day storage, vs untreated
[13] = with DHP gas, Mean / Avg. Trtd of 22 replicates, storage 4 to 7 days
[14] = with DHP gas, egg storage 4 days, single replicates of 90 eggs
[15] = with DHP gas, egg storage 5 days, single replicates of 90 eggs
[16] = with DHP gas, egg storage 6 days, single replicates of 90 eggs
[17] = with DHP gas, egg storage 7 days, single replicates of 90 eggs
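Further: paired egg replicates incubated to hatching under standard commercial conditions, then each category scored at hatch as percent of eggs in the replicate.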

Protocol: A total of 22 replicates of 90 eggs each of age matched, flock matched eggs are stored prior to incubation for 4 to 7 days in an on-site egg room at about 20° C. […] The paired replicates are then incubated to hatching under standard commercial conditions. At hatching, the following parameters are assessed and recorded: Total Hatchability (%), Fertile Hatchability (%), % Infertile, Early dead (%), Mid dead (%), Late dead (%), Cracked (%), Contaminated (%), Live pip (%), Dead pip (%), Cull dead chick (%), Chick Weight (g), Chick A (%), and Chick B (%).

With `OO` [DHP, dry hydrogen peroxide] the “% Infertile, delta” value [1] was 0.64%, the “Chick A, delta” value [1] was 0.14% and the “Chick B, delta” value [1] was −0.14%. For the same molecule, the “Chick Weight, delta” value [1] was 0.89 g, the “Cont, delta” value [1] was 0.00% and the “Crack, delta” value [1] was 0.32%. For the same molecule, the “Cull dead cks, delta” value [1] was 0.00%, the “Dead pip, delta” value [1] was −0.16% and the “Early dead, delta” value [1] was −0.33%. The “Fertile Hatchability, delta” value [1] was 0.12%, the “Late dead, delta” value [1] was −0.64% and the “Live pip, delta” value [1] was 0.63%. For the same molecule, the “Mid dead, delta” value [1] was 0.16%, the “Total Hatchability, delta” value [1] was −0.64% and the “% Infertile, delta” value [2] was 1.84%. For the same molecule, the “Chick A, delta” value [2] was 1.73%, the “Chick B, delta” value [2] was −1.73% and the “Chick Weight, delta” value [2] was 0.85 g. For the same molecule, the “Cont, delta” value [2] was 0.00%, the “Crack, delta” value [2] was −0.19% and the “Cull dead cks, delta” value [2] was 0.00%. The “Dead pip, delta” value [2] was −0.37%, the “Early dead, delta” value [2] was −1.70% and the “Fertile Hatchability, delta” value [2] was 3.20%. For the same molecule, the “Late dead, delta” value [2] was −2.05%, the “Live pip, delta” value [2] was 0.37% and the “Mid dead, delta” value [2] was 0.74%. The “Total Hatchability, delta” value [2] was 1.36%, the “% Infertile, delta” value [3] was 0.94% and the “Chick A, delta” value [3] was −0.57%. For the same molecule, the “Chick B, delta” value [3] was 0.57%, the “Chick Weight, delta” value [3] was 0.49 g and the “Cont, delta” value [3] was 0.00%. The “Crack, delta” value [3] was 0.00%, the “Cull dead cks, delta” value [3] was −0.48% and the “Dead pip, delta” value [3] was −0.48%. The “Early dead, delta” value [3] was −2.77%, the “Fertile Hatchability, delta” value [3] was 4.67% and the “Late dead, delta” value [3] was −0.82%. The “Live pip, delta” value [3] was −0.16%, the “Mid dead, delta” value [3] was 0.48% and the “Total Hatchability, delta” value [3] was 2.96%. For the same molecule, the “% Infertile” value [4] was 2.39%, the “Chick A” value [4] was 96.98% and the “Chick B” value [4] was 3.02%. The “Chick Weight” value [4] was 44.69 g, the Cont [4] was 0.00% and the Crack [4] was 0.48%. The Cull dead cks [4] was 0.00%, the Dead pip [4] was 0.16% and the Early dead [4] was 4.12%. The “Fertile Hatchability” value [4] was 92.21%, the Late dead [4] was 1.74% and the Live pip [4] was 0.95%. The Mid dead [4] was 0.16%, the “Total Hatchability” value [4] was 89.99% and the “% Infertile” value [5] was 4.44%. For the same molecule, the “Chick A” value [5] was 98.37%, the “Chick B” value [5] was 1.64% and the “Chick Weight” value [5] was 44.29 g. For the same molecule, the Cont [5] was 0.00%, the Crack [5] was 0.00% and the Cull dead cks [5] was 0.00%. For the same molecule, the Dead pip [5] was 0.00%, the Early dead [5] was 1.85% and the “Fertile Hatchability” value [5] was 95.33%. For the same molecule, the Late dead [5] was 1.11%, the Live pip [5] was 0.56% and the Mid dead [5] was 0.93%. The “Total Hatchability” value [5] was 91.11%, the “% Infertile” value [6] was 2.22% and the “Chick A” value [6] was 96.88%. The “Chick B” value [6] was 3.12%, the “Chick Weight” value [6] was 44.30 g and the Cont [6] was 0.00%. For the same molecule, the Crack [6] was 0.00%, the Cull dead cks [6] was 0.00% and the Dead pip [6] was 0.00%. The Early dead [6] was 2.70%, the “Fertile Hatchability” value [6] was 94.14% and the Late dead [6] was 2.06%. The Live pip [6] was 0.16%, the Mid dead [6] was 0.79% and the “Total Hatchability” value [6] was 92.06%. The “% Infertile” value [7] was 0.56%, the “Chick A” value [7] was 97.06% and the “Chick B” value [7] was 2.94%. For the same molecule, the “Chick Weight” value [7] was 44.68 g, the Cont [7] was 0.00% and the Crack [7] was 0.00%. For the same molecule, the Cull dead cks [7] was 0.56%, the Dead pip [7] was 0.00% and the Early dead [7] was 1.11%. For the same molecule, the “Fertile Hatchability” value [7] was 94.98%, the Late dead [7] was 1.67% and the Live pip [7] was 1.11%. For the same molecule, the Mid dead [7] was 0.56%, the “Total Hatchability” value [7] was 94.44% and the “% Infertile, delta” value [8] was 0.00%. For the same molecule, the “Chick A, delta” value [8] was −1.17%, the “Chick B, delta” value [8] was 1.17% and the “Chick Weight, delta” value [8] was 1.10 g. For the same molecule, the “Cont, delta” value [8] was −0.56%, the “Crack, delta” value [8] was 0.00% and the “Cull dead cks, delta” value [8] was 0.56%. The “Dead pip, delta” value [8] was 0.00%, the “Early dead, delta” value [8] was −2.78% and the “Fertile Hatchability, delta” value [8] was 0.56%. The “Late dead, delta” value [8] was 0.55%, the “Live pip, delta” value [8] was 1.11% and the “Mid dead, delta” value [8] was 0.56%. The “Total Hatchability, delta” value [8] was 0.56%, the “% Infertile, delta” value [9] was 1.00% and the “Chick A, delta” value [9] was 0.23%. The “Chick B, delta” value [9] was −0.23%, the “Chick Weight, delta” value [9] was 0.77 g and the “Cont, delta” value [9] was −0.05%. The “Crack, delta” value [9] was 0.05%, the “Cull dead cks, delta” value [9] was −0.10% and the “Dead pip, delta” value [9] was −0.30%. The “Early dead, delta” value [9] was −1.70%, the “Fertile Hatchability, delta” value [9] was 2.45% and the “Late dead, delta” value [9] was −0.97%. For the same molecule, the “Live pip, delta” value [9] was 0.35%, the “Mid dead, delta” value [9] was 0.45% and the “Total Hatchability, delta” value [9] was 1.16%. For the same molecule, the “increase in fertile hatchability” value [10] was 3.2%, the “increase in total hatchability” value [10] was 1.3% and the increased weight [10] was 0.85 grams. For the same molecule, the “DHP gas treated eggs observed to be contaminated” value (at day 7) was “none”, the “decrease in number of early deaths” value (death during incubation, vs untreated) was “about 1.7%” and the “change in fertile hatchability” value [11] was 0.12%. For the same molecule, the “change in total hatchability” value [11] was −0.64%, the increased weight [11] was 0.89 g and the “increase of fertile hatchability” value [12] was 0.56%. For the same molecule, the “increase of total hatchability” value [12] was 0.56%, the increased weight [12] was 1.10 grams and the “increase of fertile hatchability” value (six days, vs untreated) was 4.67%. For the same molecule, the “increase of total hatchability” value (six days, vs untreated) was 2.96%, the increased weight (six days, vs untreated) was 0.49 grams and the mid cycle deaths (vs untreated) was “decreased”. The “number of live pip eggs” value (vs untreated) was “increases”, the “improvement in number of A grade chicks” value (vs untreated eggs) was 0.23% and the “increase of average chick weight” value (vs untreated eggs, on-site storage 4 to 7 days at about 20° C.) was 0.77 grams. For the same molecule, the “increase of average chick weight” value (vs untreated eggs, on-site storage 4 to 7 days, listed as DHP gas) was 1.7% and 1.8%, the “% Infertile” value [13] was 2.73% and the “Chick A” value [13] was 97.34%. For the same molecule, the “Chick B” value [13] was 2.66%, the “Chick Weight” value [13] was 44.46 g and the Cont [13] was 0.00%. For the same molecule, the Crack [13] was 0.15%, the Cull dead cks [13] was 0.05% and the Dead pip [13] was 0.05%. The Early dead [13] was 2.78%, the “Fertile Hatchability” value [13] was 93.93% and the Late dead [13] was 1.67%. For the same molecule, the Live pip [13] was 0.61%, the Mid dead [13] was 0.61% and the “Total Hatchability” value [13] was 91.36%. The Cont [14] was 0.00%, the Crack [14] was 0.00% (5×) and 1.11% and 2.22% and the Cull dead [14] was 0.00%. For the same molecule, the Dead pip [14] was 0.00% (6×) and 1.11%, the Live pip [14] was 1.11% (2×) and 0.00% (4×) and 4.44% and the Mid dead [14] was 0.00% (6×) and 1.11%. The Cont [15] was 0.00%, the Crack [15] was 0.00% and the Cull dead [15] was 0.00%. The Dead pip [15] was 0.00%, the Early dead [15] was 2.22% (2×) and 1.11% (3×) and 3.33% and the Late dead [15] was 0.00% (3×) and 2.22% (3×). For the same molecule, the Live pip [15] was 0.00% (4×) and 1.11% and 2.22%, the Mid dead [15] was 0.00% (2×) and 1.11% (3×) and 2.22% and the Cont [16] was 0.00%. The Crack [16] was 0.00%, the Cull dead [16] was 0.00% and the Dead pip [16] was 0.00%. For the same molecule, the Early dead [16] was 2.22% (5×) and 3.33% and 4.44%, the Live pip [16] was 0.00% (6×) and 1.11% and the Mid dead [16] was 1.11% (3×) and 0.00% (3×) and 2.22%. For the same molecule, the “% Infer” value [17] was 1.11% and 0.00%, the “Chick A” value [17] was 96.47% and 97.65% and the “Chick B” value [17] was 3.53% and 2.35%. For the same molecule, the “Chick Weight” value [17] was 44.94 g and 44.41 g, the Cont [17] was 0.00% and the Crack [17] was 0.00%. The Cull dead [17] was 1.11% and 0.00%, the Dead pip [17] was 0.00% and the Early dead [17] was 1.11%. The “Fertile Hatchblty” value [17] was 95.51% and 94.44%, the Late dead [17] was 2.22% and 1.11% and the Live pip [17] was 0.00% and 2.22%. The Mid dead [17] was 0.00% and 1.11% and the “Total Hatchblty” value [17] was 94.44%.
